Measurements published in patent US20130261045A1, “GREEN TEA POLYPHENOL ALPHA SECRETASE ENHANCERS AND METHODS OF USE” (UNIVERSITY OF SOUTH FLORIDA, priority 2005, published 2013).
Peptide text beside a SMILES is read from it. * marks the point of attachment. Cbz = O=C(OCc1ccccc1)*

Columns and labels:
Format in all cases: cell-based, murine
APP cleavage processing = assay: Western blot/immunoprecipitation of APP cleavage (CTFs, sAPP-α, holo APP) in APP-transfected N2a cells; details: for α-CTF production: at the high dose; for α-CTF generation and α-CTF to β-CTF ratio: 80 μM; for effect on the action of EGCG on α-CTF cleavage: GC or C 80 μM with EGCG, FIG. 2F
Procedure: Cell cultured supernatants were collected and cell lysates were prepared from these cultured cells.
Cultured cells and mouse brain were lysed in ice-cold lysis buffer described above, and an aliquot corresponding to 50 μg of total protein was electrophoretically separated using 16.5% Tris-tricine gels. Electrophoresed proteins were then transferred to PVDF membranes (Bio-Rad), washed in dH2O, and blocked for 1 hour at ambient temperature in Tris-buffered saline (TBS; Bio-Rad) containing 5% (w/v) for non-fat dry milk. After blocking, membranes were hybridized for 1 hour at ambient temperature with various antibodies, including against the C- (369), N-terminus of APP (22C11), the N-terminus of Aβ (6E10), and ADAM10 and TACE (Calbiochem). Membranes were then washed 3× for 5 min each in dH2O and incubated for 1 hour at ambient temperature with the appropriate HRP-conjugated secondary antibody (1:1,000, Pierce Biotechnology, Inc. Rockford, Ill.). All antibodies were diluted in TBS containing 5% (w/v) of non-fat dry milk. Blots were developed using the luminal reagent (Pierce Biotechnology). Densitometric analysis was done using the Fluor-S Multimager™ with Quantity One™ software (Bio-Rad). Immunoprecipitation was performed for detection of sAPP-α, sAPP-β and Aβ by incubating 200 μg of total protein of each sample with 6E10 (1:100; Signet) or 22C11 (1:100; Roche, Basel, Switzerland) overnight with gentle rocking at 4° C., and 10 μL of 50% protein A-Sepharose beads were then added to the sample (1:10; Sigma) prior to gentle rocking for an additional 4 hours at 4° C. Following washes with 1× cell lysis buffer, samples were subjected to Western blot as described above. Antibodies used for Western blot included antibody 369 (1:1,000), anti-C-terminal APP antibody (1:500; Chemicon, Temecula, Calif.), BAM-10 (1:1,000; Sigma), 6E10 (1:1,000; Signet) or anti-Actin antibody (1:1,500; as an internal reference control; Roche). α-, β- and γ-secretase activities were quantified in cell lysates and mouse brain homogenates using available kits based on secretase-specific peptides conjugated to fluorogenic receptor molecules (R&D Systems, Minneapolis, Minn.).

Aβ generation = assay: Aβ ELISA, conditioned media of APP-transfected N2a cells (Example 1); details: co-treatment with EGCG 20 μM, GC or C 80 μM, 12 hours; SweAPP N2a cells
Procedure: Aβ1-40 and 1-42 peptides were analyzed in the conditioned media from SweAPP N2a cells (FIGS. 1A, 1C, 1D) and transgenic APPsw mouse-derived primary neuronal cells (FIG. 1B) by ELISA (n=3 for each condition).
TAPI-1, β and γ-secretase inhibitors were obtained from Calbiochem (San Diego, Calif.). Green tea extract (75% polyphenols) was obtained from the Vitamin Shoppe™ (North Bergen, N.J.).
Cultured cells were lysed in ice-cold-lysis buffer (20 mM Tris, pH 7.5, 150 mM NaCl, 1 mM EDTA, 1 mM EGTA, 1% v/v Triton X-100, 2.5 mM sodium pyropgosphate, 1 mM β-glycerolphosphate, 1 mM Na3VO4, 1 μg/mL leupeptin, 1 mM PMSF) as previously described (Tan et al., 2002). Mouse brains were isolated under sterile conditions on ice and placed in ice-cold lysis buffer. Brains were then sonicated on ice for approximately 3 min, allowed to stand for 15 min at 4° C., and centrifuged at 15,000 rpm for 15 min. Total Aβ1-42 species were detected by acid extraction of brain homogenates in 5 M guanidine buffer (ret), followed by a 1:10 dilution in lysis buffer. Soluble Aβ1-42 was directly detected in cultured cell lysates or brain homogenates prepared with lysis buffer described above by a 1:4 or 1:10 dilution, respectively. Aβ1-42 was quantified in these samples using the Aβ1-42 ELISA kit (BioSource, Camarillo, Calif.) in accordance with the manufacturer's instructions, except that standards included a 0.5 M guanidine buffer.
In order to examine the effects of green tea's components on APP cleavage processing, for a first step, N2a neuroblastoma cells overproducing Aβ were treated with each of the aforementioned components at a wide range of doses. In addition, doses of (+)-catechin hydrate (CH) and gallic acid monohydrate (GAM) were included in the first step.

α-secretase = α-secretase cleavage activity kit, lysates of APP-transfected N2a cells; details: TAPI-1 25 μM with EGCG 20 μM, 4 hours; FIGS. 3d and e
[1] = 0.5 μM to 1.5 μM, SweAPP N2a cells, data not shown

| Molecule | α-CTF production (APP cleavage processing) | effect on the ability of EGCG to reduce Aβ production (Aβ generation) | α-CTF generation and α-CTF to β-CTF ratio (APP cleavage processing) | effect on the action of EGCG on α-CTF cleavage (APP cleavage processing) | other results |
| --- | --- | --- | --- | --- | --- |
| Oc1cc(O)c2c(c1)O[C@@H](c1ccc(O)c(O)c1)[C@@H](O)C2 [(+) EC, (+)-epicatechin] | increases | – | – | – | – |
| Oc1cc(O)c2c(c1)O[C@H](c1ccc(O)c(O)c1)[C@H](O)C2 [(−) EC, (−)-epicatechin] | increases | – | – | – | – |
| Oc1cc(O)c2c(c1)O[C@H](c1cc(O)c(O)c(O)c1)[C@@H](O)C2 [GC, (−)-gallocatechin] | – | markedly inhibits the ability of EGCG to reduce Aβ production | decreased | significantly opposes | – |
| CC(C)C[C@H](CC(=O)NO)C(=O)N[C@@H](Cc1ccc2ccccc2c1)C(=O)N[C@@H](C)C(=O)NCCN [TAPI-1, reference compound] | – | – | – | – | effect on EGCG promotion of APP α-secretase cleavage (α-secretase): significantly attenuated |
| CC(C)C[C@@H](C=O)NC(=O)[C@H](CC(C)C)NC(=O)[C@@H](NC(=O)OCc1ccccc1)C(C)C [β-secretase inhibitor II, reference compound] (Cbz-Val-Leu-Leu-aldehyde) | – | – | – | – | sAPP-α levels compared with EGCG (APP cleavage processing; [1]): failed to produce the same increased α-CTF and sAPP-α levels as EGCG; α-CTF levels compared with EGCG (APP cleavage processing; [1]): failed to produce the same increased α-CTF and sAPP-α levels as EGCG |
| (−)-catechin | – | markedly inhibits the ability of EGCG to reduce Aβ production | decreased | significantly opposes | – |
